According to the supplement of paper PMC10331698:
± gives the standard deviation of the averaged measurements.

Tests used:
Test in all cases: level (log10 ratio to DMSO vehicle control); higher = higher biomarker level / cell amount than vehicle control
[1] = compound: C=C(C)C(=O)OCCC(F)(F)C(F)(F)C(F)(F)C(F)(F)C(F)(F)C(F)(F)F [6:2 Fluorotelomer methacrylate]; details: in DMSO
Procedure: (§1)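 BioMAP Diversity Plus panel of 12 human primary cell co-culture systems (3C, 4H, LPS, SAg, BT, BF4T, BE3C, CASM3C, HDF3CGF, KF3CT, MyoF, Mphg). Compounds were added 1 h before stimulation and left for 24 h (MyoF 48 h; BT 72 h for soluble read-outs or 6 d for IgG). Biomarkers were read by ELISA, cytotoxicity by SRB, PBMC viability and proliferation by Alamar Blue. Each well value was divided by the mean of 8 DMSO control wells on the same plate and log10 transformed; duplicate blinded samples were tested at 4 concentrations.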

[2] = compound: OCC(F)(F)C(F)(F)C(F)(F)CO [Hexafluoroamylene glycol]; details: in DMSO
Procedure: as §1

[3] = compound: COC(=O)C(F)(F)C(F)(F)OC(F)(C(F)(F)F)C(F)(F)OC(F)=C(F)F [Methyl perfluoro(3-(1-ethenyloxypropan-2-yloxy)propanoate)]; details: in DMSO
Procedure: as §1

[4] = compound: NC(=O)C(F)(F)C(F)(F)C(F)(F)C(F)(F)F [Nonafluoropentanamide]; details: in DMSO
Procedure: as §1

[5] = compound: NS(=O)(=O)C(F)(F)C(F)(F)C(F)(F)C(F)(F)C(F)(F)C(F)(F)F [Perfluorohexanesulfonamide]; details: in DMSO
Procedure: as §1

[6] = compound: NC(=O)C(F)(F)C(F)(F)C(F)(F)C(F)F; details: in DMSO
Procedure: as §1

[7] = compound: FC(F)(F)C(F)(F)C(F)(F)C(F)(F)C(F)(F)C(F)(F)C(F)(F)I [1-Iodopentadecafluoroheptane]; details: in DMSO
Procedure: as §1

[8] = compound: O=S(=O)(O)C(F)(F)C(F)(F)C(F)(F)C(F)(F)C(F)(F)C(F)(F)C(F)(F)C(F)(F)C(F)(F)C(F)(F)F [Sodium perfluorodecanesulfonate]; details: in DMSO
Procedure: as §1

[9] = compound: FC(F)(F)C(F)(F)CNCC(F)(F)C(F)(F)F [Bis(1H,1H-perfluoropropyl)amine]; details: in DMSO
Procedure: as §1

[10] = compound: O=S(=O)(O)CCC(F)(F)C(F)(F)C(F)(F)C(F)(F)C(F)(F)C(F)(F)F [6:2 Fluorotelomer sulfonic acid]; details: in DMSO
Procedure: as §1

[11] = compound: O=S(=O)(F)C(F)(F)C(F)(F)C(F)(F)C(F)(F)C(F)(F)C(F)(F)C(F)(F)C(F)(F)F [Perfluorooctanesulfonyl fluoride]; details: in DMSO
Procedure: as §1

[12] = compound: FC(F)(F)C(F)(F)C(F)(F)CI [Heptafluorobutyl iodide]; details: in DMSO
Procedure: as §1

[13] = compound: O=C(O)C(F)(F)C(F)(F)C(F)(F)C(F)(F)C(F)(F)C(F)(F)C(F)(F)C(F)(F)C(F)(F)C(F)F [11-H-Perfluoroundecanoic acid]; details: in DMSO
Procedure: as §1

[14] = compound: O=S(=O)(Cl)C(F)(F)C(F)(F)C(F)(F)C(F)(F)C(F)(F)C(F)(F)C(F)(F)C(F)(F)F [Perfluoro-1-octanesulfonyl chloride]; details: in DMSO
Procedure: as §1

[15] = compound: FC(F)(F)C(F)(F)C(F)(F)C(F)(F)C(F)(F)C(F)(F)CC1CO1 [3-(Perfluorohexyl)-1,2-epoxypropane]; details: in DMSO
Procedure: as §1

[16] = compound: FC(F)(F)C(F)(F)C(F)(F)CC1CO1 [1H,1H-Heptafluorobutyl epoxide]; details: in DMSO
Procedure: as §1

[17] = compound: O=C(O)C=CC(F)(C(F)(F)F)C(F)(F)F [3-(Perfluoroisopropyl)-2-propenoic acid]; details: in DMSO
Procedure: as §1

[18] = compound: NC(=O)C(F)(F)C(F)(F)C(F)(F)C(F)(F)C(N)=O [Octafluoroadipamide]; details: in DMSO
Procedure: as §1

[19] = compound: C=CC(=O)OCC(F)(F)C(F)(F)C(F)(F)COC(=O)C=C [1H,1H,5H,5H-Perfluoro-1,5-pentanediol diacrylate]; details: 6700 nM; in DMSO
Procedure: as §1

LPS:CD69 was tested, and the “level (log10)” value ([1]; 6700 nM) was -0.0355 ± 0.019, the “level (log10)” value ([1]; 20000 nM) was -0.0095 ± 0.026 and the “level (log10)” value ([1]; 60000 nM) was 0.0175 ± 0.053. For the same test system, the “level (log10)” value ([2]; 6700 nM) was -0.028 ± 0.085, the “level (log10)” value ([2]; 20000 nM) was -0.038 ± 0.03 and the “level (log10)” value ([2]; 60000 nM) was -0.041 ± 0.067. The “level (log10)” value ([3]; 6700 nM) was -0.0435 ± 0.0078, the “level (log10)” value ([3]; 20000 nM) was -0.053 ± 0.013 and the “level (log10)” value ([4]; 6700 nM) was -0.0545 ± 0.046. For the same test system, the “level (log10)” value ([4]; 20000 nM) was -0.042 ± 0.05, the “level (log10)” value ([4]; 60000 nM) was -0.001 ± 0.025 and the “level (log10)” value ([5]; 6700 nM) was -0.009 ± 0.013. For the same test system, the “level (log10)” value ([5]; 20000 nM) was -0.061 ± 0.016, the “level (log10)” value ([5]; 60000 nM) was -0.169 ± 0.005 and the “level (log10)” value ([6]; 6700 nM) was 0.006 ± 0.027. The “level (log10)” value ([6]; 20000 nM) was 0.021 ± 0.035, the “level (log10)” value ([6]; 60000 nM) was 0.0225 ± 0.061 and the “level (log10)” value ([7]; 6700 nM) was -0.0105 ± 0.033. The “level (log10)” value ([7]; 20000 nM) was 0.037 ± 0.0057, the “level (log10)” value ([8]; 1500 nM) was -0.028 ± 0.021 and the “level (log10)” value ([8]; 4400 nM) was -0.045 ± 0.011. For the same test system, the “level (log10)” value ([8]; 13000 nM) was -0.0585 ± 0.00071, the “level (log10)” value ([8]; 40000 nM) was -0.16 ± 0.054 and the “level (log10)” value ([9]; 6700 nM) was 0.016 ± 0.028. For the same test system, the “level (log10)” value ([9]; 20000 nM) was 0.0075 ± 0.053, the “level (log10)” value ([9]; 60000 nM) was 0.03 ± 0.09 and the “level (log10)” value ([10]; 6700 nM) was -0.0315 ± 0.037. For the same test system, the “level (log10)” value ([10]; 20000 nM) was -0.033 ± 0.055, the “level (log10)” value ([10]; 60000 nM) was -0.111 ± 0.057 and the “level (log10)” value ([11]; 6700 nM) was -0.019 ± 0.031. The “level (log10)” value ([11]; 20000 nM) was -0.0135 ± 0.0092, the “level (log10)” value ([11]; 60000 nM) was -0.0335 ± 0.011 and the “level (log10)” value ([12]; 6700 nM) was -0.0635 ± 0.011. The “level (log10)” value ([12]; 20000 nM) was -0.054 ± 0.013, the “level (log10)” value ([12]; 60000 nM) was -0.021 ± 0.048 and the “level (log10)” value ([13]; 6700 nM) was -0.024. For the same test system, the “level (log10)” value ([13]; 20000 nM) was -0.057, the “level (log10)” value ([14]; 6700 nM) was -0.0255 ± 0.069 and the “level (log10)” value ([14]; 20000 nM) was -0.032 ± 0.0071. For the same test system, the “level (log10)” value ([14]; 60000 nM) was -0.047 ± 0.052, the “level (log10)” value ([15]; 6700 nM) was -0.024 ± 0.013 and the “level (log10)” value ([15]; 20000 nM) was -0.0225 ± 0.015. The “level (log10)” value ([15]; 60000 nM) was -0.0195 ± 0.0078, the “level (log10)” value ([16]; 6700 nM) was -0.012 ± 0.031 and the “level (log10)” value ([16]; 20000 nM) was -0.0365 ± 0.029. For the same test system, the “level (log10)” value ([16]; 60000 nM) was 0.0095 ± 0.018, the “level (log10)” value ([17]; 6700 nM) was -0.0365 ± 0.025 and the “level (log10)” value ([17]; 20000 nM) was -0.0375 ± 0.00071. For the same test system, the “level (log10)” value ([17]; 60000 nM) was -0.0255 ± 0.023, the “level (log10)” value ([18]; 6700 nM) was 0.011 ± 0.1 and the “level (log10)” value ([18]; 20000 nM) was 0.033 ± 0.052. The “level (log10)” value ([18]; 60000 nM) was 0.082 ± 0.024 and the “level (log10)” value [19] was -0.0365 ± 0.036.
For BF4T:Keratin 8/18, the “level (log10)” value ([1]; 6700 nM) was -0.0305 ± 0.019, the “level (log10)” value ([1]; 20000 nM) was -0.0345 ± 0.044 and the “level (log10)” value ([1]; 60000 nM) was -0.054 ± 0.013. The “level (log10)” value ([2]; 6700 nM) was 0.0045 ± 0.018, the “level (log10)” value ([2]; 20000 nM) was -0.0075 ± 0.0092 and the “level (log10)” value ([2]; 60000 nM) was 0.0125 ± 0.013. The “level (log10)” value ([3]; 6700 nM) was 0.029 ± 0.02, the “level (log10)” value ([3]; 20000 nM) was 0.015 ± 0.042 and the “level (log10)” value ([4]; 6700 nM) was -0.008 ± 0.013. For the same test system, the “level (log10)” value ([4]; 20000 nM) was -0.0145 ± 0.015, the “level (log10)” value ([4]; 60000 nM) was -0.0305 ± 0.042 and the “level (log10)” value ([5]; 6700 nM) was -0.01 ± 0.033. The “level (log10)” value ([5]; 20000 nM) was -0.019 ± 0.017, the “level (log10)” value ([5]; 60000 nM) was -0.065 ± 0.067 and the “level (log10)” value ([6]; 6700 nM) was 0.004 ± 0.042. The “level (log10)” value ([6]; 20000 nM) was 0.005 ± 0.011, the “level (log10)” value ([6]; 60000 nM) was 0.0135 ± 0.026 and the “level (log10)” value ([7]; 6700 nM) was -0.031 ± 0.021. For the same test system, the “level (log10)” value ([7]; 20000 nM) was -0.054 ± 0.0028, the “level (log10)” value ([8]; 1500 nM) was 0.02 ± 0.0071 and the “level (log10)” value ([8]; 4400 nM) was 0.005 ± 0.023. The “level (log10)” value ([8]; 13000 nM) was -0.0175 ± 0.015, the “level (log10)” value ([8]; 40000 nM) was -0.044 ± 0.023 and the “level (log10)” value ([9]; 6700 nM) was -0.0075 ± 0.0064. The “level (log10)” value ([9]; 20000 nM) was -0.019 ± 0.013, the “level (log10)” value ([9]; 60000 nM) was 0.015 ± 0.03 and the “level (log10)” value ([10]; 6700 nM) was 0.0075 ± 0.019. The “level (log10)” value ([10]; 20000 nM) was -0.0065 ± 0.016, the “level (log10)” value ([10]; 60000 nM) was 0.0045 ± 0.011 and the “level (log10)” value ([11]; 6700 nM) was 0.0285 ± 0.033. The “level (log10)” value ([11]; 20000 nM) was 0.003 ± 0.016, the “level (log10)” value ([11]; 60000 nM) was 0.0335 ± 0.0092 and the “level (log10)” value ([12]; 6700 nM) was -0.022 ± 0.014. For the same test system, the “level (log10)” value ([12]; 20000 nM) was -0.0265 ± 0.0035, the “level (log10)” value ([12]; 60000 nM) was -0.0045 ± 0.039 and the “level (log10)” value ([13]; 6700 nM) was -0.0025 ± 0.011. For the same test system, the “level (log10)” value ([13]; 20000 nM) was -0.062 ± 0.0085, the “level (log10)” value ([14]; 6700 nM) was 0.0075 ± 0.00071 and the “level (log10)” value ([14]; 20000 nM) was 0.0125 ± 0.00071. For the same test system, the “level (log10)” value ([14]; 60000 nM) was -0.0805 ± 0.035, the “level (log10)” value ([15]; 6700 nM) was -0.0045 ± 0.03 and the “level (log10)” value ([15]; 20000 nM) was -0.014 ± 0.011. For the same test system, the “level (log10)” value ([15]; 60000 nM) was 0.015 ± 0.037, the “level (log10)” value ([16]; 6700 nM) was -0.001 ± 0.011 and the “level (log10)” value ([16]; 20000 nM) was -0.0025 ± 0.0064. For the same test system, the “level (log10)” value ([16]; 60000 nM) was -0.0235 ± 0.0078, the “level (log10)” value ([17]; 6700 nM) was -0.018 ± 0.028 and the “level (log10)” value ([17]; 20000 nM) was -0.0135 ± 0.0021. For the same test system, the “level (log10)” value ([17]; 60000 nM) was -0.0035 ± 0.044, the “level (log10)” value ([18]; 6700 nM) was -0.0025 ± 0.0092 and the “level (log10)” value ([18]; 20000 nM) was -0.004 ± 0.0014. The “level (log10)” value ([18]; 60000 nM) was 0.017 ± 0.033 and the “level (log10)” value [19] was 0.0095 ± 0.0092.
